# Patent US20140194477A1, “KINASE PROTEIN BINDING INHIBITORS” (Roswell Park Cancer Institute, priority 2011, published 2014)
# Legend:
# DBTRG cells = assay: MTS/clonogenic antiproliferative and cell viability assay, DBTRG cells; assay type: cell-based; conditions: 72 hours, estimated from MTS and clonogenic assays
# Experimental: (§9) MTT assay protocol: Day 1: cells plated in 96-well plates. Day 2: chemical agents (DMSO) are added to the wells containing cells(in triplicate). Day 3: 100 μM of MTS reagent is added to each well; ager incubating the plates for an hour, readings are taken using a spectrometer.
# U-87 cells = assay: MTS/clonogenic antiproliferative and cell viability assay, U-87 cells; assay type: cell-based; conditions: Homo sapiens, U-87 MG, 72 hours, estimated from MTS and clonogenic assays
# Experimental: as §9
# U87 cells = assay: Tumor growth in glioblastoma mouse model (subcutaneous U87 cells); assay type: in vivo, mice; conditions: C4 50 mg/kg IP
# Experimental: (§1) Female SCID mice were purchased six weeks old and were maintained in an animal facility, and all experiments were performed in compliance with NIH animal use guidelines using IACUC protocol. The 2x10^6 U87 cells or GL261 cells were injected into mice subcutaneously. When tumor size reached 100 mm^3, drug was introduced by IP daily, 5 days per week for several weeks. Tumor diameters were measured with calipers and tumor volume in mm^3 was calculated using this formula: tumor volume=(width)^2×Length/2. At the end of the experiment, tumor weight and volume were determined. Tumor samples were collected for Western blotting and for immunohistochemical analysis. Endpoints of anti-tumor efficacy include: 1) differences in tumor size between treated and control animals at termination of the experiment (T/C % and T-C4anal/T-C4%) and 2) differences in blood vessel density and lymphatic vessel density. One hour following the last dose, tumor tissues were snap frozen and Erk1/2, Akt, FAK and VEGFR-3 phosphorylation, as well as total protein levels (to ensure equal loading), were determined ex vivo by Western blot. Tumor tissues were sectioned and stained for total and phosphorylated FAK and VEGFR-3 in addition to TUNEL staining (apoptosis), Ki67 (proliferation), CD31 (angiogenesis) and LYVE1 (lymphangiogenesis). Necropsy was performed to evaluate drug toxicity. Experiments were repeated at least in triplicate, and data were reported as mean ±standard error of the mean. An ANOVA or student's t-test was used as appropriate to compare data between groups. Statistical significance was determined at P<0.05.
# GL261 cells = assay: Tumor growth in glioma syngeneic mouse model (subcutaneous GL261 cells); assay type: in vivo, mice; conditions: C4 50 mg/kg IP
# Experimental: as §1, with “Necropsy was performed to evaluate drug toxicity. Experiments were repeated at least in triplicate, and data were reported as mean ±standard error of the mean. An ANOVA or student's t-test was used as appropriate to compare data between groups.” left out
# [1] = 7-day multiple-dose MTD toxicologic study of Suprastin (C4), oral gavage, CD-1 mice; assay type: in vivo; conditions: both sexes, CD-1, mouse, in vivo; oral gavage in mice, daily for 7 days
# Experimental: (§2) • A 7-day, multiple-dose maximum tolerated dose toxicologic study of the drug Suprastin (C4) was performed in CD-1 mice.
# (§3) • The drug Suprastin (C4) was the test article. The chemical name for Suprastin is chloropyramine hydrochloride or N-[(4-chlorophenyl) methyl]-N[2-(dimethylamino) ethyl] pyridin-2-amine. The test article was prepared in sterile water. The test article was prepared by the sponsor and delivered to the study director prior to the study. The test article was stored in the refrigerator (4° C.), protected from light. • Control article:
# (§4) The CD-1 [Hsd:ICR(CD-1)] albino mouse was used. The CD-1 mouse is conventionally used in toxicity tests to provide information on which human hazards can be judged, and is one of the choices of species preferred by regulatory agencies. Mice were obtained from Harlan (Frederick, Md.).
# (§5) Mice were acclimated for 2 days prior to testing. 20 male and 20 female mice, nulliparous and non-pregnant, were used. Normal weight gain, appearance and behavior were factors used to select healthy mice for testing. Only naive animals were used. Mice weighed 23-33 grams (males) and 19-26 grams (females), and were in good health at the start of the study. Mice weighed 22-35 grams (males) and 18-26 grams (females) at the conclusion of the study.
# (§6) Mice were randomly assigned to 4 experimental groups (controls, low-dose, medium-dose, and high-dose) consisting of 5 males and 5 females. Mice were identified via cage cards, tail markings, and ear punch. Mouse identification codes contained information regarding experimental group (C=control, L=low-dose, IVI=medium-dose, H=high-dose), sex (M−male, F−female), and animal number (1-5).
# (§7) • A 7-day multiple-dose MTD toxicology study was performed.
# (§8) • The test article Suprastin (C4) was prepared in sterile water and administered orally (PO) via orogastric gavage as a single daily dose on days 0-6 in the morning. The compound was diluted with the control article (sterile water) so as not to exceed a volume of […]. The test article (Suprastin) was stored in the refrigerator (4° C.) and allowed to come to room temperature prior to administration. Mice were randomly allocated into 4 groups (controls, low-dose, medium-dose, and high-dose) consisting of 5 males and 5 females. Dosages were calculated on a “per mouse” basis, not on a mg/kg basis. Mice in the low-dose group received the equivalent of a 75 mg/kg dose for a 20 g mouse (1.5 mg). Mice in the medium-dose group received the equivalent of a 150 mg/kg dose for a 20 g mouse (3 mg). Mice in the high-dose group received the equivalent of a 300 mg/kg dose for a 20 g mouse (6 mg). Mice in the control group received 100pL of the control article (sterile water). Groups received the following doses, drug concentrations, and gavage volumes, as outlined in Table 4: […]
# CD-1 mice = assay: as above; assay type: in vivo
# Experimental: as §2, §3, §4, §5, §6, §7, §8
# FAK [2] = target: T1, FAK (Homo sapiens, UniProt Q05397); assay: FAK Y397 phosphorylation; assay type: biochemical; conditions: various assays
# [3] = literature report; cited from earlier work
# FAK [4] = target: T1, FAK; conditions: literature report; cited from earlier work
# glioma and ovarian tumor = conditions: literature report; cited from earlier work
# IGFR kinase = IGFR kinase (Homo sapiens, UniProt P08069); conditions: literature report; cited from earlier work
# Sequence of IGFR kinase (P08069 31-1367): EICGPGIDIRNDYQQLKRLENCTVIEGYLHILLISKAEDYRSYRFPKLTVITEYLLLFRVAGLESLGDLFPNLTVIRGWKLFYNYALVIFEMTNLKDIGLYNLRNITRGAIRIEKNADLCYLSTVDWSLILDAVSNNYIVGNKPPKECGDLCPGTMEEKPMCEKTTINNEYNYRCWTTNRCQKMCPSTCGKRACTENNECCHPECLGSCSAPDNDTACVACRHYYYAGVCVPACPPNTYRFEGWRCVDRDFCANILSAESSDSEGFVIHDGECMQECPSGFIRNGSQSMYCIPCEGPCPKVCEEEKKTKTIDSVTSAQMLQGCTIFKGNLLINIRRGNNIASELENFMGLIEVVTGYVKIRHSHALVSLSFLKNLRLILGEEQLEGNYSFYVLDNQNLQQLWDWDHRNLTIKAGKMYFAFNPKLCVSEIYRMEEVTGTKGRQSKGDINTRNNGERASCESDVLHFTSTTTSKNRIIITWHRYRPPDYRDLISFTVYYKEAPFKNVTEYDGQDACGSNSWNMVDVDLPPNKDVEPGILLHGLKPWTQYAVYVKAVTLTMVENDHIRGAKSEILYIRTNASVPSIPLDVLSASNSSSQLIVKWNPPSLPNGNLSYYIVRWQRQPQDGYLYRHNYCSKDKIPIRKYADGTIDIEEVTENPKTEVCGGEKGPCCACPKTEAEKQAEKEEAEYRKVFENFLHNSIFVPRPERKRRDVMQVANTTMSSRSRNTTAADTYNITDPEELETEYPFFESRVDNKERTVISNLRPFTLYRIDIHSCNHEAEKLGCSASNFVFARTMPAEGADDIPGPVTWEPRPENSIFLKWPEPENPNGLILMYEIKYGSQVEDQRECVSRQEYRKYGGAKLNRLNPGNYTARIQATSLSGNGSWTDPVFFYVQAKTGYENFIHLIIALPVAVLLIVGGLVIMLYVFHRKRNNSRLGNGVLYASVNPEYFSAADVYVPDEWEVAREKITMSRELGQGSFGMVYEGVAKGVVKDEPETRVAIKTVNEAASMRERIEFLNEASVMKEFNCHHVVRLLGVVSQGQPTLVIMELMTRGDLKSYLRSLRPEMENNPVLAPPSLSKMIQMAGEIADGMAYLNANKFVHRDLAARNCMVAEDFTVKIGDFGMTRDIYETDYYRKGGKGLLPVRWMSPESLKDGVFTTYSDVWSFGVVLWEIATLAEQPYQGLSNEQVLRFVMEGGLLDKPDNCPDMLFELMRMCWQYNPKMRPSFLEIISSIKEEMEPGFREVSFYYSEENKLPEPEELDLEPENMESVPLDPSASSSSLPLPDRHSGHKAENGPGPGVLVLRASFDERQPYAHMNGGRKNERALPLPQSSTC
# T1 sequence (Q05397 whole entry): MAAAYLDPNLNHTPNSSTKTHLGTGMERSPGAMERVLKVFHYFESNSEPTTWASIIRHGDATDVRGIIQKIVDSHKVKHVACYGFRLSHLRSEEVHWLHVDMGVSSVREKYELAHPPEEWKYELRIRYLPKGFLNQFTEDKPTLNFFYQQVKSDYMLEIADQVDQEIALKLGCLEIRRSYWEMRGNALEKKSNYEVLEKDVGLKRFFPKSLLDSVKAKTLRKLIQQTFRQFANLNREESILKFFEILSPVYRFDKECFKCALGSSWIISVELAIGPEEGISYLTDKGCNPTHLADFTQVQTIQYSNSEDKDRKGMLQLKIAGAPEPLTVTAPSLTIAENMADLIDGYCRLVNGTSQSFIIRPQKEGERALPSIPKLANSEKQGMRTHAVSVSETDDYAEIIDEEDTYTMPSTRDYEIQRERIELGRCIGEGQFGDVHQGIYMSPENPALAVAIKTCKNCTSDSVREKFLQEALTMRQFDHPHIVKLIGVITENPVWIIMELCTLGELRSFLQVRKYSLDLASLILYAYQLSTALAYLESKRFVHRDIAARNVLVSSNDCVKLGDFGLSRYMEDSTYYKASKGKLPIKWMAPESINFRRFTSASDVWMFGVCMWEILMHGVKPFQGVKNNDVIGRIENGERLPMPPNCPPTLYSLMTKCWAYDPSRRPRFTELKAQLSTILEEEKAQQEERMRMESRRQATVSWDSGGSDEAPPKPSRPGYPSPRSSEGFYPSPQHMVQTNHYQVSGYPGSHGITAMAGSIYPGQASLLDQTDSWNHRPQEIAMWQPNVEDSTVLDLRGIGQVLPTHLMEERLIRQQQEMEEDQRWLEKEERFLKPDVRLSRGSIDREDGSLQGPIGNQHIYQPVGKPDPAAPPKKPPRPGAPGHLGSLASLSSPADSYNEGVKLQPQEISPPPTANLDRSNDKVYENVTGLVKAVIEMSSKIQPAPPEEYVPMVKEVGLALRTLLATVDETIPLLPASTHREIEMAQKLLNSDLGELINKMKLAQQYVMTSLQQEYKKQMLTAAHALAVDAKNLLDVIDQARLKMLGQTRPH
smiles,measurement,setting,value
"CN(C)CCN(Cc1ccc(Cl)cc1)c1ccccn1 [C4, N′-[(4-chlorophenyl)methyl]-N,N-dimethyl-N′-pyridin-2-yl-ethane-1,2-diamine]",IC50,DBTRG cells,50 to 100 µM
same,IC50,U-87 cells,50 to 100 µM
same,tumor growth reduction (tumor weight),U87 cells; after 4 weeks of treatment,71.7%
same,tumor volume smaller in the treated group,U87 cells; after 4 weeks of treatment,58%
same,size of treated tumors vs control group,U87 cells; after 9 days of treatment,significantly smaller
same,weight of treated tumors vs control group,U87 cells; after 27 days of treatment,significantly smaller
same,tumor growth reduction (tumor weight),GL261 cells; after 3 weeks of treatment,57%
same,weight of treated tumors vs control group,GL261 cells; after 23 days of treatment,significantly smaller
same,MTD at 7 days,[1],≥ 150 mg/kg
same,"clinical signs, low- and medium-dose groups","CD-1 mice; mouse, in vivo",slight ruffled fur
same,"toxicity findings, high-dose group","CD-1 mice; mouse, in vivo, po, 300 mg/kg","weight loss, severe clinical signs of abdominal distention, and mortality due to gastrointestinal dilatation"
same,"mortality and body weight, low- and medium-dose groups","CD-1 mice; oral gavage daily days 0-6, 75 and 150 mg/kg",no mortality or decrement in mean body weight
same,FAK dephosphorylation,FAK [2],specifically dephosphorylates FAK
"CS(=O)(=O)c1cccc(CNc2nc(Nc3ccc4c(c3)CCC(=O)N4)ncc2C(F)(F)F)c1 [PF-573,228]",cell growth and survival in vitro,[3],did not inhibit cell growth and survival in vitro
same,cell motility,[3],inhibited only motility
CNC(=O)c1ccccc1Nc1nc(Nc2ccc(N3CCOCC3)cc2OC)ncc1Cl [TAE226],Y397-FAK phosphorylation,FAK [4],effectively blocked
same,tumor growth in vivo,glioma and ovarian tumor,inhibited glioma and ovarian tumor growth in vivo
same,IGFR kinase inhibition,IGFR kinase,inhibited IGFR kinase
